Measurements taken from publication PMC13172357 (Nature Communications, 2026).

How the values were obtained:
[1] = target: T1, human USP7 full length protein (Homo sapiens, UniProt Q93009); test: USP7 inhibition assay (Ubiquitin-Rhodamine110Gly cleavage); format: biochemical; conditions: Ub-RhoG cleavage, read-out: IC50 (half-maximal inhibition)
T1 construct: human USP7 full length protein
Description: USP7 inhibitors in DMSO were diluted in UbR buffer (40 mM Tris-HCl pH 8, 150 mM NaCl, 1 mM TCEP, 0.1 mg/mL BSA, 0.01% Tween20) to a concentration of 80 μM (4x). This stock was then further diluted in an 11-times serial dilution in UbR buffer containing 4% DMSO (4x). To this was added the same volume of human USP7 full length protein[59] […] The assay was initiated upon addition of 10 μL per well of Ubiquitin-Rhodamine110Gly (Ub-RhoG) (100 nM in UbR buffer, 2x). […] Normalization was carried out using samples featuring either no inhibitor or no enzyme as respective controls. […] Slopes of fluorescence over time curves were determined with Microsoft Excel through linear regression using the first 15 min of each measurement.

[2] = system: Panc89 cells; test: Confluence measurement (cell growth), Panc89; format: cell-based, human; conditions: Panc89, 1-10 µM, 72 h, 25 mM or 5 mM D-glucose
[3] = target: HiBiT-USP7 (Homo sapiens, UniProt Q93009); test: HiBiT USP7 degradation assay, MV4-11 cells; format: cell-based; conditions: MV4-11 HiBiT-USP7, 6 h and 24 h
Description: HiBiT-USP7 construct was cloned by extraction of USP7 fragment from plasmid pQHA-USP7 WT puroR (Addgene #46753) using appropriate restriction sites. The USP7 fragment was then ligated into the pRRL-PGK-HiBiT entry vector to generate the plasmid.
Lentiviral infection was used to generate stable a MV4-11 HiBiT cell line. Lentivirus was produced using plasmids psPAX2, pMD2.G, and HiBiT-USP7 plasmid in HEK293 cells. MV4-11 cells were infected with filtered virus supernatant and selected after 48 h of infection for the generation of the stable MV4-11^HiBiT-USP7 cell line.
The assay was performed as described previously. Briefly, MV4-11^HiBiT-USP7 cells were seeded and treated with compounds for the indicated time. Nano-Glo HiBiT Lytic Detection System (Promega) was used for the assay and luminescence was measured on a Tecan Spark microplate reader (Tecan). DC50 values were calculated using the sigmoidal dose-response (four parameters) equation in GraphPad Prism and are given as the concentration where 50% of the total signal was remaining. Dmax values are given as the maximum degradation observed at any concentration.

[4] = system: Ma-Mel-47 USP7 K.O. cells; test: Medium color switch (images), Ma-Mel-47 USP7 K.O. cells; format: cell-based, human; conditions: Ma-Mel-47 USP7-KO, 72 h, 5 µM NK192, 10 µM FT671, 1 µM NK266
[5] = system: proteins enriched from Panc89 lysate; test: Competitive pulldown with NK264-functionalized beads, mass spectrometry; format: binding, human; conditions: 10 µM competitor
Description: The next steps were carried out at room temperature unless noted otherwise. Afterwards, the samples were mixed shortly (1 min, 1000 rpm) and collected by short centrifugation (10 s, 200 ×g). Protein binding was induced by the addition of an equal volume of pure ethanol (10 min, 1000 rpm), the beads were collected by a brief centrifugation step (10 s, 200 ×g) and the plate was placed on a magnetic stand. Beads were allowed to bind for at least 5 min before the supernatant was removed. The beads were then taken up in 180 µL 80% ethanol and transferred to a fresh multiwell plate.
Samples were incubated at 37 °C for 19 h while shaking (1300 rpm). On the next day, the samples were briefly centrifuged (10 s, 200 ×g) and placed on a magnet for 5 min. The clear solution containing the tryptic peptides was transferred to a fresh multiwell plate. The beads were taken up in 47 µL 25 mM ammonium bicarbonate and incubated while shaking (10 min, 1000 rpm).

[6] = system: Panc89 cells; test: Total proteome analysis, DDA mass spectrometry, Panc89 cells; format: cell-based, H. sapiens; conditions: DDA Panc89, 5 µM, 6, 24 or 72 h
Description: Following treatment, cells were harvested, washed twice with PBS, and pellets were flash frozen in liquid nitrogen before being stored at −80 °C. Samples were prepared using the single-pot, solid-phase-enhanced sample-preparation (SP3) strategy. All buffers and solutions were prepared with mass spectrometry (MS)-grade water (Honeywell). Cell pellets were taken up in 100 µL 1x sample buffer (50 mM Hepes pH 8.0, 1% (wt/v) SDS, 1% (v/v) NP-40, 10 mM TCEP, 40 mM chloroacetamide) and samples were heated at 90 °C for 5 min prior to sonication with a Bioruptor UCD-300 (Diagenode) for ten cycles of 1 min pulse and 30 s pause at high power. The samples were then supplemented with Benzonase (20 U/sample) and sonified for 5 min in a water bath (Bandelin) followed by 30 min incubation at […].
The protein extracts were then centrifuged (20000 ×g, RT, 40 min) and the protein concentration of the cleared lysates was determined using the Pierce 660 nm Protein Assay Reagent (#22660; Thermo Scientific) with the Ionic Detergent Compatibility Reagent (#22663; Thermo Scientific) according to the manufacturers’ instructions. Next, 15 µg of total protein per sample in a volume of 100 µL sample buffer was transferred to a 500 µL 96-well plate and treated with 7 U of benzonase (#71206; Merck Millipore) in dilution buffer (20 mM Hepes pH 8.0, 2 mM MgCl2) at 37 °C for 30 min with agitation at 1500 rpm. After Benzonase treatment samples were heated to 90 °C for 5 min and after cooling down to room temperature, iodoacetamide to a final concentration of 10 mM was added for complete alkylation of cysteines (37 °C, 15 min, 1000 rpm, in the dark).
Then, 3 µL of a 50 µg/µL 1:1 mixture of hydrophilic (#45152105050250) and hydrophobic (#65152105050250) carboxylate modified Sera-Mag SpeedBeads (Cytiva), that were washed twice with MS-grade water, were added to the samples. The next steps were carried out at room temperature unless noted otherwise. Afterwards, the samples were mixed shortly (1 min, 1000 rpm) and collected by short centrifugation (10 s, 200 ×g). […]

Sequence of HiBiT-USP7 (Q93009 whole entry, the tested form may be a part): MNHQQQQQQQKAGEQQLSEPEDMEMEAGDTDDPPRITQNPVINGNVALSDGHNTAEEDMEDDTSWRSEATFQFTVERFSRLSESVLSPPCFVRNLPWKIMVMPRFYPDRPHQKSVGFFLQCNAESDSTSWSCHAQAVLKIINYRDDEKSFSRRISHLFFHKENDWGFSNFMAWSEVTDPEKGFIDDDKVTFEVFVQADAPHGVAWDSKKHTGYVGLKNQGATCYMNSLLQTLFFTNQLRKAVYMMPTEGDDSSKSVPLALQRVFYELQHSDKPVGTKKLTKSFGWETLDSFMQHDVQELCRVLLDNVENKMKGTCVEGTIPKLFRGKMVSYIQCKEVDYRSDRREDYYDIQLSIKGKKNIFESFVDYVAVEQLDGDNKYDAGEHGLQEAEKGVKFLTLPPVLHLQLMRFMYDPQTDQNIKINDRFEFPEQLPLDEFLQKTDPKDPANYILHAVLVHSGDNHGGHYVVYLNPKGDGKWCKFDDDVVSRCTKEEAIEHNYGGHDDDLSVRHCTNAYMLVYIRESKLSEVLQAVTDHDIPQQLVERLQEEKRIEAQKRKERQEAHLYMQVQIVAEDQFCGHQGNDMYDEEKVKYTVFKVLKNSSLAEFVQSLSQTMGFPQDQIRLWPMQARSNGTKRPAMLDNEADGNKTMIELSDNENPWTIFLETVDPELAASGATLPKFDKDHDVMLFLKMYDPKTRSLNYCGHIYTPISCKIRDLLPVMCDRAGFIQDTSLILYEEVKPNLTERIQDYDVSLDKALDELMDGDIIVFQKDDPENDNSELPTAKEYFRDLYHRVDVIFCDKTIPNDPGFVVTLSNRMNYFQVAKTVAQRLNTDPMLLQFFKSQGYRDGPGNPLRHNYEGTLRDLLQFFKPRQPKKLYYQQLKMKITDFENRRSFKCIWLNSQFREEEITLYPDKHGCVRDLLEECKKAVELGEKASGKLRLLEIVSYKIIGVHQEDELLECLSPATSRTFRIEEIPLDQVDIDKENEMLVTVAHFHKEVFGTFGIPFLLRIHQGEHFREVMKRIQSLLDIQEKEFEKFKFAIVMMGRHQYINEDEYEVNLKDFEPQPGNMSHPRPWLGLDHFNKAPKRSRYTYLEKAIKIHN
T1 sequence (Q93009 whole entry): as the sequence (Q93009 whole entry, the tested form may be a part) above

C[C@H](CC(=O)N1CCC(O)(Cn2cnc3c(cnn3-c3ccc(F)cc3)c2=O)CC1)c1ccccc1 [NK192]
IC50 [1]: 0.02 µM | Cell growth (in words) [2]: not affected | HiBiT-USP7 levels (in words) [3]: partial reduction of USP7 levels | Change of media color (in words) [4]: the same change of media color | Proteome-wide target specificity (in words) [5]: very high specificity for USP7 | USP7 protein level changes (in words) [6]: did not lead to USP7 protein level changes beyond the significance threshold
